“Also recorded” adds a separate entry of the source.
How the values were obtained:
SARS-CoV-2 = experiment: Hamster model of SARS-CoV-2 disease transmission and progression, viral load (PFU); assay type: in vivo, Golden Syrian Hamsters
Experimental: 24 hours prior to nasal inoculation with SARS-CoV-2, Golden Syrian Hamsters were dosed with ebselen, saline and remdesivir at 15 mg/kg. Samples were taken from nares (PFU/swab) on days 1, 2 and 3, and from the nasal turbinates and cranial & caudal lung tissue (PFU/100 mg) on day 7.

[1] = Cystic fibrosis trial: clinical chemistry, nephrotoxicity, tolerability; assay type: in vivo, human; settings: for Serum Creatinine Mean (SD): baseline 0.77 (0.24); for Blood Urea Nitrogen Mean (SD): baseline 12.81 (4.73); for Bilirubin (Total) / Creatinine / Magnesium / Phosphorus / Albumin / Potassium / Uric Acid / Total Protein / Calcium / BUN / AST/SGOT / ALT/SGPT / GGT / Bicarbonate / Triglyceride / Alkaline Phosphatase / Glucose / Chloride / Total Cholesterol / Sodium / LDH: ITT Population; for Bilirubin (Total): Screening/Baseline 0.46; for Creatinine: Screening/Baseline 0.77; for Magnesium: Screening/Baseline 2.11; for Phosphorus: Screening/Baseline 3.62; for Albumin: Screening/Baseline 3.80; for Potassium: Screening/Baseline 4.33; for Uric Acid: Screening/Baseline 5.63; for Total Protein: Screening/Baseline 7.17; for Calcium: Screening/Baseline 8.84; for BUN: Screening/Baseline 12.81; for AST/SGOT: Screening/Baseline 16.86; for ALT/SGPT: Screening/Baseline 17.05; for GGT: Screening/Baseline 22; for Bicarbonate: Screening/Baseline 26.05; for Triglyceride: Screening/Baseline 78.33; for Alkaline Phosphatase: Screening/Baseline 97.71; for Glucose: Screening/Baseline 101.24; for Chloride: Screening/Baseline 101.95; for Total Cholesterol: Screening/Baseline 126.43; for Sodium: Screening/Baseline 135.71; for LDH: Screening/Baseline 161.48
Experimental: Thirty of 80 participants were enrolled starting in January 2019. They were Cystic fibrosis patients ages 18-70 that had acute pulmonary exacerbation or acute respiratory infections that required treatment with IV tobramycin 10 mg/kg/d for 10-21 days. They were randomized into four groups (1:1:1:1) (0, 200, 400, or 600 BID) and treated for 21 days. There were four follow-up visits for safety (adverse events, spirometry, labs), and two follow-up visits for efficacy (audiometric and vestibular). The primary endpoint was a reduction in cochleotoxic change, and the secondary endpoints was a reduction in tinnitus or vertigo severity.

[2] = Cystic fibrosis trial: sentinel Pk, plasma tobramycin levels (DDI); assay type: in vivo, human
18 common microbes = experiment: MIC assays against 18 common microbes (interference); assay type: cell-based; settings: to support testing in CF patients
Source text: (§1) We have studied the efficacy of ebselen in a number of indications including the treatment of Meniere's Disease, and in the treatment of ototoxicity in cystic fibrosis (CF) patients. Ebselen has an anti-inflammatory mechanism of action that is distinct from that of a classic corticosteroid immunosuppressive agent which can be beneficial in the treatment of respiratory viral infections. […] In addition, our Phase 2b study in cystic fibrosis (CF) patients with Pseudomonas is continuing without any safety issues. […] Our results and analysis in these other clinical studies supports the use of ebselen in the subject methods of treating or preventing conditions associated with respiratory viral infections described herein.
(§2) The anti-inflammatory mechanism of action of ebselen is unique and distinct over that of a classic corticosteroid immunosuppressive agent. […] In addition, our Phase 2b study in CF patients with Pseudomonas is continuing without any safety issues.

[3] = Meniere's Disease clinical study: auditory function; assay type: in vivo, human; settings: exceeds reported improvements with corticosteroid treatment
Source text: as §1, §2

[4] = Study 6.4: ebselen in moderate COVID-19; assay type: in vivo, human; settings: 400 or 800 mg BID for 7 days
[5] = Study 6.5: ebselen in moderate to severe COVID-19 at high risk of respiratory failure; assay type: in vivo, human; settings: 400 to 600 mg BID up to 21 to 28 days
[6] = mice; Gu et al.; cited from earlier work
[7] = mice; Longenecker et al.; cited from earlier work
[8] = Solubility in aqueous solutions; settings: 25° Celsius
[9] = Visit 3, end of tobramycin treatment
[10] = Visit 4, two weeks after end of tobramycin treatment
[11] = Visit 5, four weeks after end of tobramycin treatment

O=c1c2ccccc2[se]n1-c1ccccc1 [ebselen, 2-phenyl-1,2-benzisoselenazol-3(2H)-one]
PFU/swab (nares) Day 1 (SARS-CoV-2; 15 mg/kg, 24 hours prior to nasal inoculation, saline 2.7E+04): 1.0E+04 PFU/swab
PFU/swab (nares) Day 3 (SARS-CoV-2; 15 mg/kg, 24 hours prior to nasal inoculation, saline 5.5E+02): 1.7E+02 PFU/swab
PFU/swab (nares) Day 2 (SARS-CoV-2; 15 mg/kg, 24 hours prior to nasal inoculation, saline 7.5E+03): 6.2E+03 PFU/swab
PFU/100 mg Cranial lung (SARS-CoV-2; 15 mg/kg, day 7, saline 4.9E+06): 2.3E+06 PFU/100 mg
PFU/100 mg Turbinates (SARS-CoV-2; 15 mg/kg, day 7, saline 5.5E+07): 3.6E+07 PFU/100 mg
PFU/100 mg Caudal lung (SARS-CoV-2; 15 mg/kg, day 7, saline 6.1E+06): 6.0E+06 PFU/100 mg
samples with lower counts compared to remdesivir (SARS-CoV-2; Table 2, six samples): 5 of 6
samples with lower counts compared to saline (SARS-CoV-2; Table 2, six samples): 6 of the 6
Serum Creatinine Mean (SD) ([1]; Visit 2, on tobramycin and study treatment, normal 0.49-1.44): 0.80 (0.22) mg/dl
Blood Urea Nitrogen Mean (SD) ([1]; Visit 2, on tobramycin and study treatment, normal 5-22): 14.68 (4.80) mg/dl
Bilirubin (Total) ([1]; Visit 2): 0.41
Creatinine ([1]; Visit 2): 0.80
Magnesium ([1]; Visit 2): 2.21
Phosphorus ([1]; Visit 2): 3.61
Albumin ([1]; Visit 2): 3.87
Potassium ([1]; Visit 2): 4.22
Uric Acid ([1]; Visit 2): 4.89
Total Protein ([1]; Visit 2): 7.17
Calcium ([1]; Visit 2): 8.86
BUN ([1]; Visit 2): 14.68
AST/SGOT ([1]; Visit 2): 26.45
ALT/SGPT ([1]; Visit 2): 31.41
GGT ([1]; Visit 2): 25
Bicarbonate ([1]; Visit 2): 26.73
Triglyceride ([1]; Visit 2): 114.82
Alkaline Phosphatase ([1]; Visit 2): 93.41
Glucose ([1]; Visit 2): 120.95
Chloride ([1]; Visit 2): 100.68
Total Cholesterol ([1]; Visit 2): 139.68
Sodium ([1]; Visit 2): 136.36
LDH ([1]; Visit 2): 165.45
Serum Creatinine Mean (SD) [1, 9]: 0.78 (0.20) mg/dl
Blood Urea Nitrogen Mean (SD) [1, 9]: 15.11 (5.56) mg/dl
Bilirubin (Total) ([1]; Visit 3): 0.45
Creatinine ([1]; Visit 3): 0.78
Magnesium ([1]; Visit 3): 2.19
Phosphorus ([1]; Visit 3): 3.68
Albumin ([1]; Visit 3): 4.05
Potassium ([1]; Visit 3): 4.25
Uric Acid ([1]; Visit 3): 5
Total Protein ([1]; Visit 3): 7.29
Calcium ([1]; Visit 3): 9.03
BUN ([1]; Visit 3): 15.11
AST/SGOT ([1]; Visit 3): 27.58
ALT/SGPT ([1]; Visit 3): 35.63
GGT ([1]; Visit 3): 28.32
Bicarbonate ([1]; Visit 3): 27.42
Triglyceride ([1]; Visit 3): 114.84
Alkaline Phosphatase ([1]; Visit 3): 90.16
Glucose ([1]; Visit 3): 102.53
Chloride ([1]; Visit 3): 100.68
Total Cholesterol ([1]; Visit 3): 151.89
Sodium ([1]; Visit 3): 136.05
LDH ([1]; Visit 3): 166.37
Serum Creatinine Mean (SD) [1, 10]: 0.78 (0.19) mg/dl
Blood Urea Nitrogen Mean (SD) [1, 10]: 14.94 (6.66) mg/dl
Bilirubin (Total) ([1]; Visit 4): 0.49
Creatinine ([1]; Visit 4): 0.78
Magnesium ([1]; Visit 4): 2.06
Phosphorus ([1]; Visit 4): 3.84
Albumin ([1]; Visit 4): 4.08
Potassium ([1]; Visit 4): 4.16
Uric Acid ([1]; Visit 4): 5.63
Total Protein ([1]; Visit 4): 7.49
Calcium ([1]; Visit 4): 9.12
BUN ([1]; Visit 4): 14.94
AST/SGOT ([1]; Visit 4): 18.22
ALT/SGPT ([1]; Visit 4): 20.44
GGT ([1]; Visit 4): 23.11
Bicarbonate ([1]; Visit 4): 25.94
Triglyceride ([1]; Visit 4): 96.06
Alkaline Phosphatase ([1]; Visit 4): 104.50
Glucose ([1]; Visit 4): 132.56
Chloride ([1]; Visit 4): 100.94
Total Cholesterol ([1]; Visit 4): 134.78
Sodium ([1]; Visit 4): 135.17
LDH ([1]; Visit 4): 158.83
Serum Creatinine Mean (SD) [1, 11]: 0.81 (0.24) mg/dl
Blood Urea Nitrogen Mean (SD) [1, 11]: 13.45 (6.49) mg/dl
Bilirubin (Total) ([1]; Visit 5): 0.46
Creatinine ([1]; Visit 5): 0.81
Magnesium ([1]; Visit 5): 2.16
Phosphorus ([1]; Visit 5): 3.72
Albumin ([1]; Visit 5): 3.98
Potassium ([1]; Visit 5): 4.25
Uric Acid ([1]; Visit 5): 5.62
Total Protein ([1]; Visit 5): 7.38
Calcium ([1]; Visit 5): 9.11
BUN ([1]; Visit 5): 13.45
AST/SGOT ([1]; Visit 5): 26.60
ALT/SGPT ([1]; Visit 5): 22.45
GGT ([1]; Visit 5): 20.65
Bicarbonate ([1]; Visit 5): 26.15
Triglyceride ([1]; Visit 5): 89.95
Alkaline Phosphatase ([1]; Visit 5): 101.70
Glucose ([1]; Visit 5): 119.05
Chloride ([1]; Visit 5): 101.80
Total Cholesterol ([1]; Visit 5): 137.60
Sodium ([1]; Visit 5): 136.45
LDH ([1]; Visit 5): 213.58
nephrotoxicity ([1]; after IV tobramycin and SPI-1005 or placebo treatment): no significant nephrotoxicity; also recorded: lack of nephrotoxicity
tolerability ([1]; human, in vivo, iv): well tolerated
change in plasma tobramycin levels (DDI) [2]: no significant change in plasma tobramycin levels
interference in MIC assays (18 common microbes): lack of interference
auditory function (hearing loss, word recognition and tinnitus) [3]: improvement in auditory function; also recorded: improve auditory function
respiratory status and progression to severe disease [4]: effective to improve in respiratory status and prevent progression to severe disease
time to clinical improvement (NIAID ordinal scale) [5]: effective to reduce time to at least a 2-grade improvement from baseline on the NIAID ordinal scale
protection against tobramycin-induced ototoxicity, auditory brainstem responses [6]: otoprotective and neuroprotective properties
tinnitus and hyperacusis following amikacin-induced ototoxicity [7]: improvements in tinnitus and hyperacusis
solubility in aqueous solutions [8]: slightly soluble
